pKd: −log10 of the molar value. Where two headings read alike, the source gives them in different places.
Assays:
wild type BRAF kinase [1] = target: T1, wild type BRAF kinase (Homo sapiens (Human), UniProt P15056); details: read-out: BRAF WT Kd, class symbols
mutant BRAF kinase = mutant BRAF kinase (Homo sapiens (Human), UniProt P15056, V600E); details: read-out: BRAF V600E Kd, class symbols
RAF kinases = RAF kinases (Homo sapiens (Human), UniProt P04049); details: read-out: RAF1 Kd, class symbols
RAF kinases, sequence (P04049 whole entry): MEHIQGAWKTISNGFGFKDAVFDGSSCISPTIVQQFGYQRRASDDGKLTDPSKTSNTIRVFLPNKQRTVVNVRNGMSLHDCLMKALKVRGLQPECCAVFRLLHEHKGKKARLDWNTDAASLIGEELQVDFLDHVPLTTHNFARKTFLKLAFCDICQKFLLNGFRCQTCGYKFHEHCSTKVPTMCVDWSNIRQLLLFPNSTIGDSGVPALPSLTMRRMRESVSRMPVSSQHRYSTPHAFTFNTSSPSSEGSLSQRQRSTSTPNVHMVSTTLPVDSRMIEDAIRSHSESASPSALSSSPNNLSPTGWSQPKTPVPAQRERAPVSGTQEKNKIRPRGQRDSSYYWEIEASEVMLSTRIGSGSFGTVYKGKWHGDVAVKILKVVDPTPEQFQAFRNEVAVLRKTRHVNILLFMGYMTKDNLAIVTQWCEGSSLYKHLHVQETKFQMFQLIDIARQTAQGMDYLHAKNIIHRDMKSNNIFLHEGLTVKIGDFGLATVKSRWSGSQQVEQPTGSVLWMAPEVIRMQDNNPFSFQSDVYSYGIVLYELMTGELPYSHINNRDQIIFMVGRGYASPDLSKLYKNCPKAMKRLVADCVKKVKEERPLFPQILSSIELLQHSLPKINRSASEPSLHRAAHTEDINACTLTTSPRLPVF
Description: The liganded beads were blocked with excess biotin and washed with blocking buffer (SeaBlock (Pierce), 1% BSA, 0.05% Tween 20, 1 mM DTT) to remove unbound ligand and to reduce non-specific binding. […] Test compounds were prepared as 100× stocks in DMSO and rapidly diluted into the aqueous environment. DMSO was added to control assays lacking a test compound. Primary screen interactions were performed in polypropylene 384-well plates in a final volume of 34 μL, while Kd determinations were performed in polystyrene 96-well plates in a final volume of 135 μL. […] The kinase concentration in the eluates was measured by quantitative PCR. Each kinase was tested individually against each compound. KdS were determined using eleven serial threefold dilutions. A selectivity score, which is a quantitative measure of selectivity of a compound against a panel of enzymes, may be calculated for a compound by dividing the number of enzymes for which a compound meets a set criteria, (for example, a binding constant of 100 nM or less), by the total number of enzymes tested. […] (Note, for those compounds tested in a larger kinase panel, as indicated by an asterisk (*) next to the S35 score, the divisor is 321 (i.e. the larger panel contains 321 distinct kinases, excluding mutant variants.)).

[2] = system: panel of 290 distinct kinases (321 in the larger panel), excluding mutant variants; details: kinase selectivity score, class symbols
wild type BRAF kinase [3] = target: T1, wild type BRAF kinase; assay: biochemical
[4] = value marked * (larger kinase panel)

mutant BRAF kinase, sequence (P15056 whole entry V600E): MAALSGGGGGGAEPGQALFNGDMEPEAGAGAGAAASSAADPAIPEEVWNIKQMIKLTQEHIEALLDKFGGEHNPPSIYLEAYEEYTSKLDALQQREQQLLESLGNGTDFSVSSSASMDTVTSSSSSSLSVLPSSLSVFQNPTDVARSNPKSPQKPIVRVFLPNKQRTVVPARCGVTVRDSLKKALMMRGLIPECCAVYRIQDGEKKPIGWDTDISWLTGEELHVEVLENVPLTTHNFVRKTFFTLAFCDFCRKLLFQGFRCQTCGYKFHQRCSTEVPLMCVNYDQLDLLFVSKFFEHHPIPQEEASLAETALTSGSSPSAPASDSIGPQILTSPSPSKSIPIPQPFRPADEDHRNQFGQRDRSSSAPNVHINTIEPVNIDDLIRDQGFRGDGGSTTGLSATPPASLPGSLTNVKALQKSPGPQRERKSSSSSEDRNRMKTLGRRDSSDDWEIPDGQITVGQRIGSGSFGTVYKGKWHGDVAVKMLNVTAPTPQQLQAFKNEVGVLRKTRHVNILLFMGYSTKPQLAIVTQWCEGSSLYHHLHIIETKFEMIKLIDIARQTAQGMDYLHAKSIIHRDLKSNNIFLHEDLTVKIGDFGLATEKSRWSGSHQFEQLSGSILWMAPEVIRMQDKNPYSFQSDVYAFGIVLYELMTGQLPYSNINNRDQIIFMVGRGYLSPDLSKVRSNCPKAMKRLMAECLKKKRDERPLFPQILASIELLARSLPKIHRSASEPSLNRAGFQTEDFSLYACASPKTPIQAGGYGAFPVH
T1 sequence (P15056 whole entry): as the sequence (P15056 whole entry V600E) above, with E600V counted along it

SMILES | pKd (wild type BRAF kinase [1]) | pKd (mutant BRAF kinase) | pKd (RAF kinases) | S35 ([2]; 290 distinct kinases) | S35 [2, 4] | pKd (wild type BRAF kinase [3])
COc1cc2ncnc(Sc3cccc(NC(=O)Nc4cc(C(C)(C)C)on4)c3)c2cc1OCCN1CCS(=O)(=O)CC1 [Ex 71, 1-(5-tert-butyl-isoxazol-3-yl)-3-(3-{6-[2-(1,1-dioxo-thiomorpholin-4-yl)-ethoxy]-7-methoxy-quinazolin-4-ylsulfanyl}-phenyl)-urea] | > 6.60 | > 6.60 | > 6.60 | C (0.20 < C ≦ 0.40) |  | 
COc1cc2ncnc(Oc3cccc(NC(=O)Nc4cc(C(C)C)no4)c3)c2cc1OC [Ex 122, 1-(3-(6,7-dimethoxyquinazolin-4-yloxy)phenyl)-3-(3-isopropylisoxazol-5-yl)urea] | > 6.60 | > 6.60 | > 6.60 | C (0.20 < C ≦ 0.40) |  | 
COc1cc2ncnc(Oc3cccc(NC(=O)Nc4cc(C5CC5)no4)c3)c2cc1OC [Ex 124, 1-(3-cyclopropylisoxazol-5-yl)-3-(3-(6,7-dimethoxyquinazolin-4-yloxy)phenyl)urea] | > 6.60 | > 6.60 | > 6.60 | C (0.20 < C ≦ 0.40) |  | 
COc1cc2ncnc(Oc3cccc(NC(=O)Nc4cc(C(C)(C)C)on4)c3)c2cc1OCCCN1CCOCC1 [Ex 22, 1-(5-tert-butylisoxazol-3-yl)-3-(3-(7-methoxy-6-(3-morpholinopropoxy)quinazolin-4-yloxy)phenyl)urea] | > 6.60 | > 6.60 | > 6.60 | D (D > 0.40) |  | 
COc1cc2ncnc(Sc3cccc(NC(=O)Nc4cc(C(F)(F)F)nn4C)c3)c2cc1OC [Ex 193, 1-[3-(6,7-dimethoxyquinazolin-4-ylthio)phenyl]-3-[1-methyl-3-(trifluoromethyl)-1H-pyrazol-5-yl]urea] | > 6.60 | > 6.60 | > 6.60 |  | D* (D > 0.40) | 
COc1cc2ncnc(Oc3cccc(NC(=O)Nc4cc(C(C)(CF)CF)nn4-c4ccccc4)c3)c2cc1OC [Ex 167, 1-[3-(1,3-difluoro-2-methylpropan-2-yl)-1-phenyl-1H-pyrazol-5-yl]-3-[3-(6,7-dimethoxyquinazolin-4-yloxy)phenyl]urea] | < 6.00 | < 6.00 | < 6.00 |  | D* (D > 0.40) | 
COc1cc2ncnc(Oc3cccc(NC(=O)Nc4cc(C(F)(F)F)ccn4)c3)c2cc1OC [Ex 141, 1-(3-(6,7-dimethoxyquinazolin-4-yloxy)phenyl)-3-(4-(trifluoromethyl)pyridin-2-yl)urea] | > 6.60 | > 6.60 | > 6.60 | C (0.20 < C ≦ 0.40) |  | 
COc1cc2ncnc(Oc3cccc(NC(=O)Nc4cc(C5CCCC5)on4)c3)c2cc1OC [Ex 135, 1-(5-cyclopentylisoxazol-3-yl)-3-(3-(6,7-dimethoxyquinazolin-4-yloxy)phenyl)urea] | > 6.60 | > 6.60 | > 6.60 |  | C* (0.20 < C ≦ 0.40) | 
COc1cc2ncnc(Sc3cccc(NC(=O)Nc4cc(C(C)(CF)CF)nn4-c4ccccc4)c3)c2cc1OC [Ex 196, 1-[3-(1,3-difluoro-2-methylpropan-2-yl)-1-phenyl-1H-pyrazol-5-yl]-3-[3-(6,7-dimethoxyquinazolin-4-ylthio)phenyl]urea] | < 6.00 | < 6.00 | < 6.00 |  | D* (D > 0.40) | 
COc1cc2ncnc(Sc3cccc(NC(=O)Nc4cc(C(C)(C)C)on4)c3)c2cc1OCCCS(C)(=O)=O [Ex 64, 1-(5-tert-butylisoxazol-3-yl)-3-(3-(7-methoxy-6-(3-(methylsulfonyl)propoxy)quinazolin-4-ylthio)phenyl)urea] | > 6.60 | > 6.60 | > 6.60 | C (0.20 < C ≦ 0.40) |  | 
COc1cc2ncnc(Oc3cccc(NC(=O)Nc4cc(C(C)(C)C)on4)c3)c2cc1O[C@H]1CCN(C)C1 [Ex 109, (S)-1-(5-tert-butylisoxazol-3-yl)-3-(3-(7-methoxy-6-(1-methylpyrrolidin-3-yloxy)quinazolin-4-yloxy)phenyl)urea] |  | > 6.60 | > 6.60 | D (D > 0.40) |  | 6.30 to 6.60
COc1cc2ncnc(Sc3cccc(NC(=O)Nc4cc(C(C)C)on4)c3)c2cc1OC [Ex 134, 1-(3-(6,7-dimethoxyquinazolin-4-ylthio)phenyl)-3-(5-isopropylisoxazol-3-yl)urea] | > 6.60 | > 6.60 | > 6.60 |  | C* (0.20 < C ≦ 0.40) | 
COc1cc2c(Oc3cccc(NC(=O)Nc4cc(C(C)(C)C)on4)c3)ncnc2cc1OC[C@H](O)CN1CCN(C)CC1 [Ex 100, (R)-1-(5-tert-butylisoxazol-3-yl)-3-(3-(7-(2-hydroxy-3-(4-methylpiperazin-1-yl)propoxy)-6-methoxyquinazolin-4-yloxy)phenyl)urea] | > 6.60 | > 6.60 | > 6.60 | D (D > 0.40) |  | 
COCCOc1cc2ncnc(Oc3cccc(NC(=O)Nc4ccc(OC)c(C(F)(F)F)c4)c3)c2cc1OC [Ex 139, 1-(4-methoxy-3-(trifluoromethyl)phenyl)-3-(3-(6-methoxy-7-(2-methoxyethoxy)quinazolin-4-yloxy)phenyl)urea] | > 6.60 | > 6.60 | > 6.60 |  | C* (0.20 < C ≦ 0.40) | 
COc1cc2c(Oc3cccc(NC(=O)Nc4cc(C(C)(C)C)on4)c3)ncnc2cc1O[C@H]1CCN(CC(F)(F)F)C1 [Ex 104, (S)-1-(5-tert-butylisoxazol-3-yl)-3-(3-{6-methoxy-7-[1-(2,2,2-trifluoroethyl)pyrrolidin-3-yloxy]quinazolin-4-yloxy}phenyl)urea] | < 6.00 | < 6.00 | < 6.00 |  | B* (0.10 < B ≦ 0.20) | 
COc1cc2nc(Cl)nc(Sc3cccc(NC(=O)Nc4cc(C(C)(C)C)on4)c3)c2cc1OC [Ex 89, 1-(5-tert-butylisoxazol-3-yl)-3-(3-(2-chloro-6,7-dimethoxyquinazolin-4-ylthio)phenyl)urea] | < 6.00 | < 6.00 | < 6.00 | A (A ≦ 0.10) |  | 
COc1cc2ncnc(Oc3cccc(NC(=O)Nc4cc(C(F)(F)F)nn4C)c3)c2cc1OC [Ex 164, 1-[3-(6,7-dimethoxyquinazolin-4-yloxy)phenyl]-3-[1-methyl-3-(trifluoromethyl)-1H-pyrazol-5-yl]urea] | > 6.60 | > 6.60 | > 6.60 |  | C* (0.20 < C ≦ 0.40) | 

— patent US9730937B2, “RAF kinase modulator compounds and methods of use thereof” (AMBIT BIOSCIENCES CORPORATION, priority 2008, dated 2017)
